From patent US12004506B2, “Pharmaceutical composition comprising a cyclic peptide of formula X1-[sequence]-X2 and use for extracorporeal lung treatment” (priority 2013, dated 2024) come the findings set out here.

Data set [1] has as its system sodium ion current in A549 cells (deglycosylated cell surface). Description: Patch clamp assay, whole cell mode, on A549 cells deglycosylated with PNGase F. The format is cell-based, human. To be noted: 240 nM peptide, Eh -100 mV, A549. Here is the method: In whole cell mode experiments as described above, A549 cells were incubated with “PNGase enzyme F” (Peptide-N^4-(N-acetyl-β-D-glucosaminyl)asparagine amidase F) 100 units for 1-5 minutes immediately prior to the patch clamp measurements and glass cover slips with the cultured cells were rinsed with external solution before being transferred to the chamber of the 1 mL bath.
The results of the deglycosylation experiments using the patch clamp assay in whole cell mode are presented in Table IV, wherein the effect of deglycosylation of A549 cells on activation of sodium ion current by peptides of SEQ ID NO:1 to SEQ ID NO:7 is indicated. Whole cell currents were recorded at Eh=−100 mV.

Data set [2] in a line: Stability of aqueous solution of the cyclised compound. The format is physicochemical. The source says:
For administration by inhalation/spraying, e.g. in the form of an aerosol, either the aqueous solution from the first dissolution step, or the lyophilisates obtained, re-dissolved in water, is subjected to spraying (atomizing) to obtain an aerosol, e.g. by use of a nebulizer. […] The appropriate lower limit of the droplet size is dependent only from the feasibility of the droplets.

Data set [3] has as its system non-ischemic pig donor lung. Description: Ex vivo lung perfusion (EVLP) of non-ischemic pig donor lungs, inhalative application. To be noted: inhalative application, 1 mg/kg, hourly T1 to T4, vs WFI control. Here is the method: Brain death pigs were turned into dorsal position, and a longitudinal sternotomy was performed. The pericardium and both pleural cavities were opened. […] An inflow catheter was placed in the pulmonary artery through a purse-string on the right ventricular outflow tract.
The lungs (non-ischemic) were then preserved with an ante grade flush of cold isotonic preservation solution (50 ml per kg body weigh of pig, containing potassium ions, sodium ions, magnesium ions, calcium ions, chloride ions, dextran, glucose, buffering ions) through the inflow catheter. Incision of the left auricular appendix provides outflow. The lungs were ventilated during this period with 50% oxygen, and iced slush were placed in both pleural cavities and mediastinum.
The explanation technique was en bloc harvesting with heart and esophagus according to the following steps: • a) Dissection of soft tissue bridges to the thoracic cavity on both sides of the trachea. • b) Transsection of both pulmonal ligaments (very deep, difficult exposure), then of the VCI, the lower thoracic descendent aorta and the esophagus, respectively. • c) Blunt separation from remaining mediastinal adhesions. • d) Complete inflation of the donor lung prior of tracheal closure with a stapler.
After explantation, the lungs were wrapped in gauze, placed in an insulated ice bag filled with low-potassium dextran extracellular solution, and stored at 4° C. for 18 to 24 hours. A temperature probe was submerged in the container, which will be placed in a refrigerator.
For ex-vivo lung conditioning, the EVLP technique ([…]) was used. In the EVLP technique, donor lungs are placed into a circuit composed of a pump, ventilator and filters. EVLP technique, the temperature may increased up to 37 °C. In the EVLP, a ventilator is used to deliver oxygen to the lungs. The pump is used to perfuse the lungs with an extracellular solution containing human albumin and nutrition. During EVLP, the lung function can be evaluated regularly on key indicators. […]

Setting [4] is: laboratory syringe, 2 to 8° C., T = 0 and T = 7 days.
[5] abbreviates: storage tank of a nebulizer, 25° C., T = 0 and T = 24 hours.

Turning to `C[C@@H]1NC(=O)CNC(=O)[C@H](CCC(=O)O)NC(=O)[C@@H]2CCCN2C(=O)[C@H]([C@@H](C)O)NC(=O)[C@H](CCC(=O)O)NC(=O)[C@H](CCCNC(=N)N)NC(=O)[C@H](CCC(N)=O)NC(=O)CNC(=O)[C@@H](N)CSSC[C@@H](C(=O)O)NC(=O)[C@H](Cc2ccc(O)cc2)NC(=O)[C@H](Cc2c[nH]c3ccccc23)NC(=O)[C@@H]2CCCN2C(=O)[C@H](CCCCN)NC(=O)[C@H](C)NC(=O)[C@H](CCC(=O)O)NC1=O` [SEQ ID NO: 1], in data set [1], the “Whole cell current, pre-treatment with PNGase F” value is given as 19.6 pA (n = 3). The “Purity (stability)” value in data set [2] (laboratory syringe, 2 to 8° C., T = 0) turned out to be 96.3%; in data set [2] (laboratory syringe, 2 to 8° C., T = 7 days), 96.2%; in data set [2] (storage tank of a nebulizer, 25° C., T = 0) it was 96.6%; in data set [2] (storage tank of a nebulizer, 25° C., T = 24 hours), 96.5%. In addition, the Amount/Content in data set [2] (setting [4]) and in data set [2] (setting [5]) was 25 mg/mL throughout. For the same molecule, the “Appearance of aqueous solution” value in data set [2] (setting [4]) and in data set [2] (setting [5]) was “Clear solution” each time. Also, the dynamic lung compliance entry in data set [3] (FIG. 2A) is “improved”. The “arterio-venous pO2 difference ΔpO2” value in data set [3] (FIG. 2B) is on record as “improved”.
